From patent publication US12097173B2, “Volatile organic compound formulations having antimicrobial activity” (priority 2019, dated 2024)

Legend:
Type in all cases: cell-based
Cercospora beticola = experiment: plate bioassay of volatile test mixtures, growth inhibition; settings: for percent inhibition of the growth of Cercospora beticola: Table 4, 30 hr at room temperature, compared to control
Method: (§1) FIG. 1 illustrates a plate bioassay to determine the bioactivity of various esters when combined with a 1:1 mix of the two organic acids as per Table 2. The test organisms were as follows—Cercospora (dark-lower left bottom) then clockwise—Phytophthora, Verticillium, Sclerotinia, Pythium. Fusarium, Trichoderma, Rhizoctonia, and Aspergillus. The streaks were Saccharomyces (far right bottom) then Candida, E coli and Bacillus (left bottom). A=control plate, and B=plate with System 1 after incubation for 30 hr.
(§2) FIG. 9 depicts the biological activities of various test mixtures against a panel of test microbes. A small plug of each organism was placed in the periphery of the PDA plate. In the center well was placed the test solution in the plastic cup holder. A control plate (A) was also set up. After 30 hr the growth of the test organisms was compared to that of the control and the % inhibition was calculated. The (B) plate contained the test mixture. Measurements were made 30 hr after plate set up.
(§3) FIG. 1. Indicates how the assays were done to yield the data sets in Table 1. The various esters were combined with a 1:1 mixture of propanoic acid and isobutryic acid and these were added 7:2 V/V with the ester to be tested.
(§4) Shown in Table 1, are the inhibition and killing effects of propanoic acid, and isobutryic acid together and alone and with various esters. The tests were conducted over the course of 30 hr at 22° C. Measurements were made on appropriate controls and thus the percentage of inhibition calculations could be made on treatments vs the growth on a control organism (non-treated). The bacteria and yeast like organisms were evaluated on the basis of relative growth rates after 30 hr. Those highlighted areas on the table show those compounds (esters) having the most compatibility with propanoic and isobutryic acid 1:1 v/v mixtures with the appropriate esters at a 7:2 ratio—Systems 1 and 2 above. It is from this test that Systems 1 and 2 were discovered. The acids were added at […] individually and combination of the esters with the acids were added at the […] in the plate assay.
as §2, with “Tests were conducted as similarly described for Systems 1 and 2 above (FIG. 9) to ascertain” for “FIG. 9 depicts”

Phytophthora cinnamomi = experiment: as above; settings: for percent inhibition of the growth of Phytophthora cinnamomi: Table 4, 30 hr at room temperature, compared to control
Method: as §1, §2, §3, §4
as §2, with “Tests were conducted as similarly described for Systems 1 and 2 above (FIG. 9) to ascertain” for “FIG. 9 depicts”

Pythium ultimum = experiment: as above; settings: for percent inhibition of the growth of Pythium ultimum: Table 4, 30 hr at room temperature, compared to control
Method: as §1, §2, §3, §4
as §2, with “Tests were conducted as similarly described for Systems 1 and 2 above (FIG. 9) to ascertain” for “FIG. 9 depicts”

Rhizoctonia solani = experiment: as above; settings: for percent inhibition of the growth of Rhizoctonia solani: Table 4, 30 hr at room temperature, compared to control
Method: as §1, §2, §3, §4
as §2, with “Tests were conducted as similarly described for Systems 1 and 2 above (FIG. 9) to ascertain” for “FIG. 9 depicts”

Trichoderma viridae = experiment: as above; settings: for percent inhibition of the growth of Trichoderma viridae: Table 4, 30 hr at room temperature, compared to control
Method: as §1, §2, §3, §4
as §2, with “Tests were conducted as similarly described for Systems 1 and 2 above (FIG. 9) to ascertain” for “FIG. 9 depicts”

Verticillium dahliae = experiment: as above; settings: for percent inhibition of the growth of Verticillium dahliae: Table 4, 30 hr at room temperature, compared to control
Method: as §1, §2, §3, §4
as §2, with “Tests were conducted as similarly described for Systems 1 and 2 above (FIG. 9) to ascertain” for “FIG. 9 depicts”

Sclerotinia sclerotiorum = experiment: as above; settings: for percent inhibition of the growth of Sclerotinia sclerotiorum: Table 4, 30 hr at room temperature, compared to control
Method: as §1, §2, §3
The tests were conducted over the course of 30 hr at 22° C. Measurements were made on appropriate controls and thus the percentage of inhibition calculations could be made on treatments vs the growth on a control organism (non-treated). The bacteria and yeast like organisms were evaluated on the basis of relative growth rates after 30 hr. […] The acids were added at […] individually and combination of the esters with the acids were added at the […] in the plate assay.
as §2, with “Tests were conducted as similarly described for Systems 1 and 2 above (FIG. 9) to ascertain” for “FIG. 9 depicts”

Bacillus subtilus = experiment: plate bioassay of volatile test mixtures, relative growth of streak
Method: as §1, §2, §3, §4
as §2, with “Tests were conducted as similarly described for Systems 1 and 2 above (FIG. 9) to ascertain” for “FIG. 9 depicts”

Candida albicans = experiment: as above
Method: as §1, §2, §3, §4
as §2, with “Tests were conducted as similarly described for Systems 1 and 2 above (FIG. 9) to ascertain” for “FIG. 9 depicts”

Escherichia coli = experiment: as above
Method: as §1, §2, §3, §4
as §2, with “Tests were conducted as similarly described for Systems 1 and 2 above (FIG. 9) to ascertain” for “FIG. 9 depicts”

Saccharomyces cerevicae = experiment: as above; settings: for growth of Saccharomyces cerevisiae: Table 4, 30 hr at room temperature
Method: as §1, §2, §3, §4
as §2, with “Tests were conducted as similarly described for Systems 1 and 2 above (FIG. 9) to ascertain” for “FIG. 9 depicts”

Aspergillus flavus = experiment: plate bioassay of volatile test mixtures, growth inhibition; settings: Table 4; 30 hr at room temperature, compared to control
Method: as §2
as §2, with “Tests were conducted as similarly described for Systems 1 and 2 above (FIG. 9) to ascertain” for “FIG. 9 depicts”
(§5) All testing was done according to the methods in Table 4

Fusarium solani = experiment: as above; settings: Table 4; 30 hr at room temperature, compared to control
Method: as §2
as §2, with “Tests were conducted as similarly described for Systems 1 and 2 above (FIG. 9) to ascertain” for “FIG. 9 depicts”
as §5

Aspergillus fumigatus = experiment: as above; settings: 30 hr at 22° C.; esters with 1:1 v/v propanoic acid and isobutryic acid (acids to ester 7:2 v/v), 9 ul; acids 7 ul
Method: as §1, §3, §4

Fusarium subglutinans = experiment: as above; settings: 30 hr at 22° C.; esters with 1:1 v/v propanoic acid and isobutryic acid (acids to ester 7:2 v/v), 9 ul; acids 7 ul
Method: as §1, §3, §4

[1] = Table 4, 30 hr at room temperature
[2] = 30 hr at 22° C., esters with 1:1 v/v propanoic acid and isobutryic acid (acids to ester 7:2 v/v), 9 ul, acids 7 ul
[3] = relative growth after 30 hr at 22° C., esters with 1:1 v/v propanoic acid and isobutryic acid (7:2 v/v), 9 ul, acids 7 ul

Row | Compound | percent inhibition of the growth of Cercospora beticola (Cercospora beticola) | percent inhibition of the growth of Phytophthora cinnamomi (Phytophthora cinnamomi) | percent inhibition of the growth of Pythium ultimum (Pythium ultimum) | percent inhibition of the growth of Rhizoctonia solani (Rhizoctonia solani) | percent inhibition of the growth of Trichoderma viridae (Trichoderma viridae) | percent inhibition of the growth of Verticillium dahliae (Verticillium dahliae) | percent inhibition of the growth of Sclerotinia sclerotiorum (Sclerotinia sclerotiorum) | growth of Bacillus subtilus (Bacillus subtilus; [1]) | growth of Candida albicans (Candida albicans; [1]) | growth of Escherichia coli (Escherichia coli; [1]) | growth of Saccharomyces cerevisiae (Saccharomyces cerevicae) | percent inhibition of the growth of Aspergillus flavus (Aspergillus flavus) | percent inhibition of the growth of Fusarium solani (Fusarium solani) | other results
1 | Isoamyl Hexonates [reference compound] | 83% | 13% | 28% | 0% | 13% | 0% | 66% | Yes | Yes | Yes | Yes | 66% | 83% | 
2 | CCC(=O)O [Propanoic Acid, reference compound] | 66% | 38% | 100% | 81% | 45% | 83% | 0% | No | Medium | No | Yes | 52% | 17% | inhibition of Cercospora beticola (Cercospora beticola; [2]): 95%; inhibition of Phytophthora cinnamomi (Phytophthora cinnamomi; [2]): 67%; inhibition of Pythium ultimum (Pythium ultimum; [2]): 91%; inhibition of Rhizoctonia solani (Rhizoctonia solani; [2]): 100%; inhibition of Trichoderma viridae (Trichoderma viridae; [2]): 53%; inhibition of Verticillium dahliae (Verticillium dahliae; [2]): 96%; inhibition of Sclerotinia sclerotiorum (Sclerotinia sclerotiorum; [2]): 60%; inhibition of Aspergillus fumigatus (Aspergillus fumigatus): 80%; inhibition of Fusarium subglutinans (Fusarium subglutinans): 83%; growth of Bacillus subtilus (Bacillus subtilus; [3]): No Growth; growth of Candida albicans (Candida albicans; [3]): Growth Observed; growth of Escherichia coli (Escherichia coli; [3]): No Growth; growth of Saccharomyces cerevicae (Saccharomyces cerevicae; [3]): Growth Observed
